Measured values from publication PMC6274353, “The Blood-Brain Barrier Permeability of Lignans and Malabaricones from the Seeds of Myristica fragrans in the MDCK-pHaMDR Cell Monolayer Model” (Molecules, 2016).

Columns and labels:
P-glycoprotein (P-gp) = assay: in vitro; conditions: dog
[1] = bidirectional transport across the MDCK-pHaMDR cell monolayer (in vitro BBB model); conditions: dog, MDCK-MDR1, pH 7.35
Description: (§1) The MDCK-pHaMDR cells were seeded at a density of about 8 × 10^4 cells/mL on the 12-well Transwell® plates. After an eight-day culture, the cells reached confluence and differentiation for the transport study.
(§2) On the 8th day, the monolayers were washed twice and shaken at 55 rpm for 30 min with HBSS at 37 °C. Then, the TEER was measured with an epithelial volt-ohm meter (EVOM; World Precision Instrument) to examine the monolayer's integrity. Only those with the TEER values above 1000 Ω·cm^2 were qualified for the transport.
(§3) The bidirectional transport assay was initiated by adding a test compound to either the apical (0.5 mL for apical to basolateral transport, A→B) or the basolateral (1.5 mL for basolateral to apical transport, B→A) side. After shaking at 55 rpm and 37 °C for a certain time, samples (A→B: 400 µL from the apical side and 1300 µL from the basolateral side; B→A: 450 µL from the apical side and 450 µL from the basolateral side) were collected, immediately frozen, lyophilized and preserved below –20 °C before analysis.
(§4) Papp of each compound was calculated based on the following equation: (1) Papp = (ΔQ/Δt)/(AC0) (cm/s) where ΔQ/Δt is the appearance rate of the test compound at the receiver side (µmol/s), C0 is the initial concentration of the test compound at the donor side (µM), and A is the membrane surface area (cm^2). All of the experiments were conducted in triplicate.

[2] = system: MDCK-pHaMDR cell monolayer; assay: as above; conditions: classed by Papp against caffeine and atenolol
Description: as §1, §2, §3, §4

| Papp B→A (P-glycoprotein (P-gp); MDCK-MDR1) [nm/s] | Papp B→A (P-glycoprotein (P-gp); MDCK-MDR1, with verapamil 100 µM) [nm/s] | Papp A→B at 90 min, 100 µM [1] [nm/s] | Papp B→A at 90 min, 100 µM [1] [nm/s] | Papp at 90 min, 100 µM [1] [nm/s] | permeability (in words) [2] | SMILES | Papp [1] [nm/s] |
| --- | --- | --- | --- | --- | --- | --- | --- |
| 33.1 ± 1.2 | 15.2 ± 0.8 |  |  |  |  | COC(=O)c1ccccc1-c1c2ccc(=N)cc-2oc2cc(N)ccc12 [rhodamin 123, rhodamine 123] |  |
|  |  | < 0.75 | < 0.73 | ≤ 0.1 |  | COc1cc([C@H]2c3cc(O)c(OC)cc3C[C@@H](C)[C@@H]2C)ccc1O [Compound 11, guaiacin] |  |
|  |  | < 1.45 | < 1.4 | ~1 |  | COc1cc(CC(C)C(C)Cc2ccc(O)c(OC)c2)ccc1O (stereo not drawn) [Compound 10, dihydroguaiaretic acid] |  |
|  |  |  |  |  |  | Cn1c(=O)c2c(ncn2C)n(C)c1=O [caffeine, reference compound] | 244 ± 11 |
|  |  | < 0.62 | < 0.6 | ≤ 0.1 | very poor permeability | C/C=C/c1cc(OC)c2c(c1)[C@@H](C)[C@H](c1ccc3c(c1)OCO3)O2 [Compound 3, licarin B] |  |
|  |  | 6.4 ± 0.7 | 6.3 ± 0.4 | ~1 |  | O=C(CCCCCCCCc1ccc(O)c(O)c1)c1c(O)cccc1O [Compound 15, malabaricone C] |  |
|  |  | 104 ± 14.9 | 150 ± 12.7 |  |  | COc1cc([C@H]2O[C@@H](c3ccc(O)c(OC)c3)[C@H](C)[C@@H]2C)ccc1O [Compound 9, nectandrin B] |  |
|  |  | < 0.73 | < 0.7 | ≤ 0.1 |  | COc1cc2c(cc1O)[C@H](c1ccc3c(c1)OCO3)[C@@H](C)[C@H](C)C2 [Compound 12, otobaphenol] |  |
|  |  | < 0.57 | < 0.55 | ≤ 0.1 | very poor permeability | C/C=C/c1cc(OC)c2c(c1)[C@@H](C)[C@H](c1cc(OC)c3c(c1)OCO3)O2 [Compound 4, 3′-methoxylicarin B] |  |
|  |  | 24.3 ± 3.2 | 18.2 ± 1.8 | ~10 |  | C/C=C/c1cc(OC)c2c(c1)[C@@H](C)[C@H](c1ccc(O)c(OC)c1)O2 (racemic) [Compound 1, Dehydrodiisoeugenol] |  |
|  |  | 109 ± 3.2 | 204 ± 9.7 |  |  | COc1cc([C@H]2O[C@@H](c3ccc(O)c(OC)c3)[C@@H](C)[C@@H]2C)ccc1O [Compound 8, verrucosin] |  |

| SMILES | Papp B→A (P-glycoprotein (P-gp); MDCK-MDR1) [nm/s] | Papp B→A (P-glycoprotein (P-gp); MDCK-MDR1, with verapamil 100 µM) [nm/s] | Papp A→B at 90 min, 100 µM [1] [nm/s] | Papp B→A at 90 min, 100 µM [1] [nm/s] | Papp at 90 min, 100 µM [1] [nm/s] | permeability (in words) [2] | Papp [1] [nm/s] |
| --- | --- | --- | --- | --- | --- | --- | --- |
| O=C(CCCCCCCCc1ccccc1)c1c(O)cccc1O [Compound 13, malabaricone A] |  |  | < 0.38 | < 0.37 | ≤ 0.1 |  |  |
